Data as given in paper PMC5826148, “Whole-Cell Screen of Fragment Library Identifies Gut Microbiota Metabolite Indole Propionic Acid as Antitubercular” (Antimicrobial Agents and Chemotherapy, 2018).
Values after ≈ are worked out from the molar mass of the structure shown. Where two headings read alike, the source gives them in different places.

How the values were obtained:
M. bovis BCG Pasteur = experiment: microbe, parasite or virus in culture; assay type: cell-based; settings: Mycobacterium tuberculosis variant bovis BCG, BCG, read-out: Antibacterial activity (MIC50) M. bovis BCG
M. smegmatis = experiment: Spectrum of activity: M. smegmatis growth inhibition; assay type: cell-based; settings: Mycolicibacterium smegmatis, 24 h, read-out: Antibacterial activity (MIC50) M. smegmatis
M. tuberculosis = experiment: Growth inhibition in acidic medium (pH 6.2); assay type: cell-based, Mycobacterium tuberculosis
M. tuberculosis H37Rv [1] = experiment: Bactericidal activity, CFU enumeration on agar after treatment; assay type: cell-based, Mycobacterium tuberculosis; settings: Mycobacterium tuberculosis, H37RV, read-out: Bactericidal activity (log reduction) at 1 mM
[2] = system: human red blood cells (RBCs); experiment: Red blood cell lysis assay; settings: hemolysis
M. abscessus = experiment: Spectrum of activity: M. abscessus growth inhibition; assay type: cell-based; settings: Mycobacteroides abscessus, 72 h, read-out: Antibacterial activity (MIC50) M. abscessus
M. avium = experiment: Spectrum of activity: M. avium growth inhibition; assay type: cell-based; settings: Mycobacterium avium, 96 h, read-out: Antibacterial activity (MIC50) M. avium
M. tuberculosis H37Rv [3] = experiment: M. tuberculosis growth inhibition dose-response (MIC50), turbidity readout; assay type: cell-based, Mycobacterium tuberculosis; settings: Mycobacterium tuberculosis, 240 h, read-out: Antibacterial activity (MIC50) M. tuberculosis
Staphylococcus aureus = experiment: Spectrum of activity: S. aureus growth inhibition; assay type: cell-based; settings: Staphylococcus aureus, read-out: Antibacterial activity (MIC50) S. aureus
Escherichia coli = experiment: Spectrum of activity: E. coli growth inhibition; assay type: cell-based; settings: Escherichia coli, read-out: Antibacterial activity (MIC50) E. coli
[4] = Cytotoxicity assay, HepG2 cells (CellTiter 96 AQueous One); settings: human, HepG2 cells
[5] = Cytotoxicity assay, THP-1 cells (CellTiter 96 AQueous One); settings: human
[6] = Mycobacterium tuberculosis, pH 6.2; read-out: Activity (MIC50) in acidic medium (pH 6.2)
[7] = M. tuberculosis, 1 mM, log CFU/ml reduction from initial inoculum
[8] = Mycobacterium tuberculosis, pH 6.2, read-out: Activity (MIC50) in acidic medium (pH 6.2)

SMILES	MIC50 (M. bovis BCG Pasteur) [µM]	MIC50 (M. smegmatis; 1 day) [µM]	MIC50 (M. tuberculosis; [6]) [µM]	log reduction at 1000 µM (M. tuberculosis H37Rv [1]; [7])	RBCs HC50 [2]	MIC50 (M. abscessus; 3 days) [µM]	MIC50 (M. avium; 4 days) [µM]	MIC50 (M. tuberculosis H37Rv [3]; H37Rv, 10 days) [µM]	MIC50 (Staphylococcus aureus; LB medium, overnight) [µM]	MIC50 (Escherichia coli; LB medium, overnight) [µM]	CC50 at 24 h [4] [µM]	CC50 at 24 h [5] [µM]	MIC50 (M. smegmatis) [µM]	MIC50 (M. tuberculosis; [8]) [µM]	log reduction at 1000 µM (M. tuberculosis H37Rv [1])	MIC50 (M. abscessus) [µM]	MIC50 (M. avium) [µM]	MIC50 (M. tuberculosis H37Rv [3]; H37RV) [µM]	MIC50 (Staphylococcus aureus) [µM]	MIC50 (Escherichia coli) [µM]
COC(=O)c1sc2ccccc2c1O [Fragment F9, Methyl 3-hydroxy-1-benzo thiophene-2-carboxylate]	> 500	> 500	240 (≈ 50 µg/mL)	2.09	>1,000 μM	> 500	> 500	142 (≈ 29.6 µg/mL)	217 (≈ 45.2 µg/mL)	> 500										
Oc1ccc(Oc2ccccc2)cc1 [Fragment F29, 4-Phenoxyphenol]	387 (≈ 72.1 µg/mL)	250 (≈ 46.6 µg/mL)	118 (≈ 22 µg/mL)	1.09	912 µM	267 (≈ 49.7 µg/mL)	411 (≈ 76.5 µg/mL)	439 (≈ 81.7 µg/mL)	348 (≈ 64.8 µg/mL)	201 (≈ 37.4 µg/mL)	202	145								
O=c1cc(C(F)(F)F)c2ccc(O)cc2o1 [Fragment F2, 7-Hydroxy-4-(trifluoromethyl)-2H-chromen-2-one]	329 (≈ 75.7 µg/mL)	476 (≈ 110 µg/mL)	179 (≈ 41.2 µg/mL)	1.1	>1,000 μM	> 500	> 500	213 (≈ 49 µg/mL)	198 (≈ 45.6 µg/mL)	432 (≈ 99.4 µg/mL)	987	879								
OCc1csc(-c2ccc(C(F)(F)F)cc2)n1 [Fragment F28, {2-[4-(Trifluoromethyl)phenyl]-1,3-thiazol-4-yl}methanol]	398 (≈ 103 µg/mL)	235 (≈ 60.9 µg/mL)	215 (≈ 55.7 µg/mL)	1.21	786 µM	253 (≈ 65.6 µg/mL)	325 (≈ 84.3 µg/mL)	434 (≈ 113 µg/mL)	> 500	> 500	> 1000	940								
N#Cc1ccc(O)cc1F [Fragment F22, 2-Fluoro-4-hydroxybenzonitrile]	420 (≈ 57.6 µg/mL)	487 (≈ 66.8 µg/mL)	140 (≈ 19.2 µg/mL)	1.6	>1,000 μM	401 (≈ 55 µg/mL)	317 (≈ 43.5 µg/mL)	300 (≈ 41.1 µg/mL)	343 (≈ 47 µg/mL)	202 (≈ 27.7 µg/mL)	879	677								
Cc1oc(-c2ccc(Cl)cc2)cc1C(=O)N(C)C [Fragment F8, 5-(4-Chlorophenyl)-N,N,2-trimethyl-3-furamide]	189 (≈ 49.8 µg/mL)	233 (≈ 61.4 µg/mL)	93 (≈ 24.5 µg/mL)	1.44	433 µM	322 (≈ 84.9 µg/mL)	169 (≈ 44.6 µg/mL)	135 (≈ 35.6 µg/mL)	> 500	> 500	589	234								
NCc1cccc(N2CCCCC2)n1 [Fragment F17, [6-(Piperidin-1-yl)pyridin-2-yl]methanamine]	345 (≈ 66 µg/mL)	> 500	245 (≈ 46.9 µg/mL)	3.07	>1,000 μM	> 500	271 (≈ 51.8 µg/mL)	250 (≈ 47.8 µg/mL)	104 (≈ 19.9 µg/mL)	> 500	455	489								
O=C(O)c1csc2ccc(Cl)cc12 [Fragment F25, 5-Chloro-1-benzothiophene-3-carboxylic acid]	367 (≈ 78 µg/mL)	98 (≈ 20.8 µg/mL)	94 (≈ 20 µg/mL)	2.1	945 µM	257 (≈ 54.7 µg/mL)	489 (≈ 104 µg/mL)	319 (≈ 67.8 µg/mL)	> 500	> 500	765	876								
Cc1cc(C(=O)O)c(C)n1Cc1cccs1 [Fragment F16, 2,5-Dimethyl-1-(2-thienylmethyl)-1H-pyrrole-3-carboxylic acid]	> 500	> 500	345 (≈ 81.2 µg/mL)	1.89	>1,000 μM	> 500	> 500	247 (≈ 58.1 µg/mL)	> 500	> 500	766	724								
Cc1ccc(-c2cc(C(=O)O)c(C)o2)cc1 [Fragment F24, 2-Methyl-5-(4-methylphenyl)-3-furoic acid]	193 (≈ 41.7 µg/mL)	> 500	120 (≈ 25.9 µg/mL)	2.02	>1,000 μM	> 500	458 (≈ 99 µg/mL)	316 (≈ 68.3 µg/mL)	> 500	> 500	984	887								
O=C(O)c1cc2ccccc2cn1 [Fragment F14, Isoquinoline-3-carboxylic acid]	193 (≈ 33.4 µg/mL)				>1,000 μM								176 (≈ 30.5 µg/mL)	87 (≈ 15.1 µg/mL)	1.97	> 500	473 (≈ 81.9 µg/mL)	235 (≈ 40.7 µg/mL)	304 (≈ 52.6 µg/mL)	193 (≈ 33.4 µg/mL)
Clc1ccc2nc(N3CCCNCC3)sc2c1 [Fragment F12, 6-Chloro-2-(1,4-diazepan-1-yl)-1,3-benzothiazole]	137 (≈ 36.7 µg/mL)	221 (≈ 59.2 µg/mL)	104 (≈ 27.8 µg/mL)	2.8	>1,000 μM	351 (≈ 94 µg/mL)	157 (≈ 42 µg/mL)	198 (≈ 53 µg/mL)	> 500	324 (≈ 86.8 µg/mL)	187	124								
Cc1ncc(C(N)=S)[nH]1 [Fragment F3, 2-Methyl-1H-imidazole-4-carbothioamide]	134 (≈ 18.9 µg/mL)	> 500	98 (≈ 13.8 µg/mL)	1.87	>1,000 μM	304 (≈ 42.9 µg/mL)	198 (≈ 28 µg/mL)	105 (≈ 14.8 µg/mL)	> 500	> 500	> 1000	850								
CSc1cc(-c2ccc(F)cc2)n[nH]1 [Fragment F11, 3-(4-Fluorophenyl)-5-(methylsulfanyl)-1H-pyrazole]	308 (≈ 64.1 µg/mL)	398 (≈ 82.9 µg/mL)	140 (≈ 29.2 µg/mL)	3.06	>1,000 μM	271 (≈ 56.4 µg/mL)	498 (≈ 104 µg/mL)	195 (≈ 40.6 µg/mL)	> 500	344 (≈ 71.6 µg/mL)	945	765								
Cc1ccc2c(c1)N(CCO)C(C)(C)CC2C.O (stereo not shown) [Fragment F18, 2-(2,2,4,7-Tetramethyl-1,2,3,4-tetrahydroquinolin-1-yl)ethan-1-ol hydrate]	87				471 µM								205	86	1.67	247	198	268	189	> 500
O=C(O)c1ccc(-c2ccsc2)cc1 [Fragment F26, 4-(3-Thienyl)benzoic acid]	> 500	> 500	125 (≈ 25.5 µg/mL)	1.35	>1,000 μM	497 (≈ 102 µg/mL)	> 500	320 (≈ 65.4 µg/mL)	> 500	> 500	944	978								
O=C(O)c1ccc(-c2cccs2)s1 [Fragment F20, [2,2′-Bithiophene]-5-carboxylic acid]	457 (≈ 96.1 µg/mL)	289 (≈ 60.8 µg/mL)	170 (≈ 35.7 µg/mL)	1.98	>1,000 μM	267 (≈ 56.1 µg/mL)	> 500	271 (≈ 57 µg/mL)	> 500	> 500	765	974								
O=C(O)c1ccc(-c2ccccc2)s1 [Fragment F10, 5-Phenylthiophene-2-carboxylic acid]	397 (≈ 81.1 µg/mL)	345 (≈ 70.5 µg/mL)	97 (≈ 19.8 µg/mL)	1.46	>1,000 μM	247 (≈ 50.4 µg/mL)	> 500	186 (≈ 38 µg/mL)	> 500	> 500	612	544								
c1ccc2c(c1)[nH]c1cnccc12 [Fragment F6, 9H-Pyrido[3,4-b]indole]	205 (≈ 34.5 µg/mL)				787 µM								121 (≈ 20.4 µg/mL)	113 (≈ 19 µg/mL)	0.43	254 (≈ 42.7 µg/mL)	302 (≈ 50.8 µg/mL)	97 (≈ 16.3 µg/mL)	> 500	302 (≈ 50.8 µg/mL)
